Data as given in patent US12268694B2, “Combination pharmaceutical agents as RSV inhibitors” (Enanta Pharmaceuticals, Inc., priority 2017, dated 2025).

Key:
[1] = system: genotype A, "Long" strain RSV; assay: RSV-A assay: CPE protection in HEp-2 cells, ATPlite readout; type: cell-based, human respiratory syncytial virus; conditions: human respiratory syncytial virus, HEp-2, read-out: Human RSV-A (“Long” strain) EC50
Outline: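 EC50 derives from ATPlite luminescence after 5-day culture of RSV Long-infected (MOI 0.1) HEp-2 cells, seeded 8,000/well, exposed to duplicate 2-fold compound series. CC50 comes from an identical plate receiving medium instead of virus.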

HEp-2 cells = assay: Cytotoxicity in parallel to the RSV-A assay (no virus), ATPlite readout; type: cell-based, human
Outline: (§1)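 HEp-2 cells at 8,000/well in DMEM with 10% heat-inactivated FBS received 2-fold serial compound dilutions in duplicate and growth media in place of virus. After 5 days cell viability was read as ATP content by ATPlite luminescence to give CC50.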

[2] = system: RSV genotype B, strain 9320; assay: RSV-B assay: A549 cells infected with RSV-B, qPCR or ATPlite readout; type: cell-based; conditions: human respiratory syncytial virus, A549, 144 h, read-out: Human RSV-B EC50
Excerpt: HEp-2 cells, (originally derived from tumors grown in irradiated-cortisonised weanling rats that had been injected with epidermoid carcinoma tissue from a person's larynx, but later found to be indistinguishable from HeLa cells by PCR DNA analysis), were used for the culturing of genotype B, strain 9320. Flasks were inoculated with RSV-B and viral stocks were collected once cytopathic effect (CPE) was greater than […]. Viral stocks in 25% sucrose media were snap frozen using liquid nitrogen to increase viral stability. Viral stock titers were quantified by tissue culture infectious dose 50% (TCID50) using 8,000 cells per well and 5-fold viral dilutions across a 96-well plate, cultured for 4 days. Viral stock titers were also quantified by a plaque forming unit assay, as described elsewhere.
The assay is run as follows: A549 cells (originally derived through explant culture from a person's carcinomatous lung tissue) are seeded into the inner 60 wells of a 96-well plate at 3,000 cells per well in a volume of 50 μL using A549 growth media (F-12K Media, 1% Penn/Strep, 1% nonessential amino acids, 10% heat-inactivated FBS). 2-fold serial dilutions of control and test compounds are added to the wells in duplicate in a total volume of 25 μL. Viral stock is then added to the wells at a multiplicity of infection (MOI) of 0.5 in a volume of 25 μL, bringing the total volume of each well to 100 μL. The MOI is calculated using the PFU/mL, or TCID50 if unavailable. Each 96-well plate has a control column of 6 wells with cells and virus but no compound (negative control, max CPE), a column with cells but no compound or virus (positive control, minimum CPE), and a column with no cells or virus or compound (background plate/reagent control). The control wells with cells but no virus are given an additional 25 μL of growth media containing an equal quantity of sucrose as those wells receiving the viral stock in order to keep consistent in media and volume conditions. The outer wells of the plate are filled with 125 μL of moat media (DMEM, 1% Penn/Strep) to act as a thermal and evaporative moat around the test wells. 6 days post infection, the plates are read using qPCR or ATP lite (50 μL added per well), which quantifies the amount of ATP (a measure of cell health) present in each well. Assay plates treated with APTlite are read using the Envision luminometer. […] EC50 ranges are as follows: A <0.4 μM; B 0.4-0.8 μM; C >0.8 μM.

[3] = Cytotoxicity in parallel to the RSV-A assay (no virus), ATPlite readout; type: cell-based, human; conditions: human, HEp-2 cells (uninfected)
Outline: as §1

Row | Structure (SMILES) | EC50 [1] | CC50 (HEp-2 cells) | EC50 [2] | CC50 at 5 days [3]
1 | O=C1Nc2ccccc2C(c2ccccc2)=N[C@@H]1Nc1nnc(-c2ccc(F)cc2)o1 [Example 7a] | 400 to 800 nM | > 50000 nM | > 800 nM | –
2 | O=C1Nc2ccccc2C(c2ccccc2)=NC1Nc1nnc(-c2ccc3ncsc3c2)o1 (centres unmarked) [Example 42] | 400 to 800 nM | – | – | > 50000 nM
3 | Cc1ccc(-c2nnc(N[C@H]3N=C(c4ccccc4)c4ccccc4NC3=O)o2)c(N2CCOCC2)n1 [Example 252] | < 400 nM | – | < 400 nM | –
4 | C[C@H]1CN(c2ncccc2-c2nnc(NC3N=C(c4ccccc4)c4ccccc4NC3=O)o2)CCO1 (some centres unmarked) [Example 263] | 400 to 800 nM | – | 400 to 800 nM | –
5 | COC1CCN(c2cc(C(F)(F)F)cnc2-c2nnc(N[C@H]3N=C(c4ccccc4)c4ccccc4NC3=O)o2)CC1 [Example 268] | > 800 nM | – | 400 to 800 nM | –
6 | O=C1Nc2ccccc2C(c2ccccc2)=N[C@@H]1Nc1nnc(-c2ncc(C(F)(F)F)cc2N2CCC(F)CC2)o1 [Example 269] | > 800 nM | – | 400 to 800 nM | –
7 | Cc1nc(-c2nnc(N[C@H]3N=C(c4ccccc4)c4ccccc4NC3=O)o2)c(N2CCOCC2)s1 [Example 272] | < 400 nM | – | < 400 nM | –
8 | O=C1Nc2ccccc2C(c2ccccc2)=N[C@@H]1Nc1nnc(-c2ccc(C(F)(F)F)nc2N2CC3CCC(C2)O3)o1 [Example 276] | 400 to 800 nM | – | > 800 nM | –
9 | C[C@@H]1CN(c2cc(C(F)(F)F)cnc2-c2nnc(N[C@H]3N=C(c4ccccc4)c4ccccc4NC3=O)o2)CCO1 [Example 277] | < 400 nM | – | < 400 nM | –
10 | C[C@H]1CN(c2cc(C(F)(F)F)cnc2-c2nnc(N[C@H]3N=C(c4ccccc4)c4ccccc4NC3=O)o2)CCO1 [Example 278] | < 400 nM | – | < 400 nM | –
11 | COCCOc1cc(C#N)ccc1-c1nnc(N[C@H]2N=C(c3ccccc3)c3ccccc3NC2=O)o1 [Example 300] | < 400 nM | – | < 400 nM | –
12 | N#CCCNc1cc(C(F)(F)F)cnc1-c1nnc(N[C@H]2N=C(c3ccccc3)c3ccccc3NC2=O)o1 [Example 303] | < 400 nM | – | < 400 nM | –
13 | N#Cc1cnc(-c2nnc(N[C@H]3N=C(c4ccccc4)c4ccccc4NC3=O)o2)c(N2CC3CCC(C2)O3)c1 [Example 304] | < 400 nM | – | < 400 nM | –
14 | O=C1Nc2ccccc2C(c2ccccc2)=N[C@@H]1Nc1nnc(-c2nc3ccccc3cc2N2CCOCC2)o1 [Example 322] | < 400 nM | – | < 400 nM | –
15 | O=C1Nc2ccccc2C(c2ccccc2)=N[C@@H]1Nc1nnc(-c2ncsc2N2CCOCC2)o1 [Example 336] | < 400 nM | – | < 400 nM | –
16 | O=C1Nc2ccccc2C(c2ccccc2)=N[C@@H]1Nc1nnc(-c2nc(C3CC3)sc2N2CCOCC2)o1 [Example 338] | < 400 nM | – | < 400 nM | –
17 | O=C1Nc2ccccc2C(c2ccccc2)=N[C@@H]1Nc1nnc(-c2nc(C(F)(F)F)sc2N2CCOCC2)o1 [Example 339] | < 400 nM | – | < 400 nM | –
18 | O=C1Nc2ccccc2C(c2ccccc2)=N[C@@H]1Nc1nnc(-c2nc(-c3ccccc3)sc2N2CCOCC2)o1 [Example 340] | < 400 nM | – | < 400 nM | –
19 | O=C1Nc2ccccc2C(c2ccccc2)=N[C@@H]1Nc1nnc(-c2nc(-c3ccccn3)sc2N2CCOCC2)o1 [Example 341] | < 400 nM | – | < 400 nM | –
20 | O=C1Nc2ccccc2C(c2ccccc2)=N[C@@H]1Nc1nnc(-c2csc(N3CCOCC3)n2)o1 [Example 351] | 400 to 800 nM | – | 400 to 800 nM | –
21 | O=C1Nc2c(F)cccc2C(c2ccccc2)=N[C@@H]1Nc1nnc(-c2ccccc2N2CCOCC2)o1 [Example 355a] | < 400 nM | – | < 400 nM | –
22 | O=C1Nc2ccccc2C(c2ccccc2)=NC1Nc1nnc(-c2ccc(-n3cccn3)cc2)[nH]1 (centres unmarked) [Example 364] | < 400 nM | – | 400 to 800 nM | –
23 | N#Cc1ccc(-c2ccc(NC3N=C(c4ccccc4)c4ccccc4NC3=O)nn2)cc1 (centres unmarked) [Example 377] | < 400 nM | – | < 400 nM | –
24 | CCc1nc(-c2nnc(N[C@H]3N=C(c4ccccc4)c4ccccc4NC3=O)o2)c(N2CCOCC2)s1 [Example 385] | < 400 nM | – | < 400 nM | –
25 | O=C1Nc2ccccc2C(c2ccccc2)=N[C@@H]1Nc1nnc(-c2nc(C3CCC3)sc2N2CCOCC2)o1 [Example 387] | < 400 nM | – | < 400 nM | –
26 | O=C1Nc2ccccc2C(c2ccccc2)=N[C@@H]1Nc1nnc(-c2nc(-c3cccnc3)sc2N2CCOCC2)o1 [Example 388] | < 400 nM | – | < 400 nM | –
27 | CC(C)n1cc(-c2nnc(N[C@H]3N=C(c4ccccc4)c4ccccc4NC3=O)o2)c(N2CCOCC2)n1 [Example 403] | < 400 nM | – | < 400 nM | –
28 | CC(F)(F)c1nc(-c2nnc(N[C@H]3N=C(c4ccccc4)c4ccccc4NC3=O)o2)c(N2CCOCC2)s1 [Example 407] | < 400 nM | – | < 400 nM | –
29 | O=C1Nc2ccccc2C(c2ccccc2)=N[C@@H]1Nc1nnc(-c2nc(-c3ccncc3)sc2N2CCOCC2)o1 [Example 429] | < 400 nM | – | < 400 nM | –
